Reference: PubChem BioAssay (NCI)
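A five-concentration, 48-hour dose response in 96-well plates underlies each endpoint, interpolated linearly between surrounding concentrations. TGI marks complete inhibition of growth.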

Assays:
Test in all cases: DTP human tumour cell line panel, 48 h
[1] = system: 786-0 renal
[2] = system: A498 renal
[3] = system: A549 NSCLC
[4] = system: ACHN renal
[5] = system: BT-549 breast
[6] = system: CAKI-1 renal
[7] = system: CCRF-CEM leukemia
[8] = system: COLO 205 colon
[9] = system: DU-145 prostate
[10] = system: EKVX NSCLC
[11] = system: HCC-2998 colon
[12] = system: HCT-116 colon
[13] = system: HCT-15 colon
[14] = system: HL-60(TB) leukemia
[15] = system: HOP-62 NSCLC
[16] = system: HOP-92 NSCLC
[17] = system: HS 578T breast
[18] = system: HT29 colon
[19] = system: IGROV1 ovarian
[20] = system: K-562 leukemia
[21] = system: KM12 colon
[22] = system: LOX IMVI melanoma
[23] = system: M14 melanoma
[24] = system: MCF7 breast
[25] = system: MDA-MB-231 breast
[26] = system: MDA-MB-435
[27] = system: MDA-N
[28] = system: MOLT-4 leukemia
[29] = system: NCI-H226 lung
[30] = system: NCI-H23 lung
[31] = system: NCI-H460 lung
[32] = system: NCI-H522 lung
[33] = system: NCI/ADR-RES ovarian
[34] = system: OVCAR-3 ovarian
[35] = system: OVCAR-4 ovarian
[36] = system: OVCAR-5 ovarian
[37] = system: OVCAR-8 ovarian
[38] = system: PC-3 prostate
[39] = system: RPMI-8226 leukemia
[40] = system: RXF 393 renal
[41] = system: SF-268 CNS
[42] = system: SF-295 CNS
[43] = system: SF-539 CNS
[44] = system: SK-MEL-2 melanoma
[45] = system: SK-MEL-28 melanoma
[46] = system: SK-MEL-5 melanoma
[47] = system: SK-OV-3 ovarian
[48] = system: SN12C renal
[49] = system: SNB-19 CNS
[50] = system: SNB-75 CNS
[51] = system: SR leukemia
[52] = system: SW-620 colon
[53] = system: T-47D breast
[54] = system: TK-10 renal
[55] = system: U251 CNS
[56] = system: UACC-257 melanoma
[57] = system: UACC-62 melanoma
[58] = system: UO-31 renal
[59] = system: MALME-3M melanoma

## CC1=C(C(=O)NNC(=O)C(N)=O)CC(C(=O)NNC(=O)C(N)=O)=C(C)N1
[1]
  TGI: > 100 µM
[2]
  TGI: > 100 µM
[3]
  TGI: > 100 µM
[4]
  TGI: > 100 µM
[5]
  TGI: > 100 µM
[6]
  TGI: > 100 µM
[7]
  TGI: > 100 µM
[8]
  TGI: > 100 µM
[9]
  TGI: > 100 µM
[10]
  TGI: > 100 µM
[11]
  TGI: > 100 µM
[12]
  TGI: > 100 µM
[13]
  TGI: > 100 µM
[14]
  TGI: > 100 µM
[15]
  TGI: > 100 µM
[16]
  TGI: > 100 µM
[17]
  TGI: > 100 µM
[18]
  TGI: > 100 µM
[19]
  TGI: > 100 µM
[20]
  TGI: > 100 µM
[21]
  TGI: > 100 µM
[22]
  TGI: > 100 µM
[23]
  TGI: > 100 µM
[24]
  TGI: > 100 µM
[25]
  TGI: > 100 µM
[26]
  TGI: > 100 µM
[27]
  TGI: > 100 µM
[28]
  TGI: > 100 µM
[29]
  TGI: > 100 µM
[30]
  TGI: > 100 µM
[31]
  TGI: > 100 µM
[32]
  TGI: > 100 µM
[33]
  TGI: > 100 µM
[34]
  TGI: > 100 µM
[35]
  TGI: > 100 µM
[36]
  TGI: > 100 µM
[37]
  TGI: > 100 µM
[38]
  TGI: > 100 µM
[39]
  TGI: > 100 µM
[40]
  TGI: > 100 µM
[41]
  TGI: > 100 µM
[42]
  TGI: > 100 µM
[43]
  TGI: > 100 µM
[44]
  TGI: > 100 µM
[45]
  TGI: > 100 µM
[46]
  TGI: > 100 µM
[47]
  TGI: > 100 µM
[48]
  TGI: > 100 µM
[49]
  TGI: > 100 µM
[50]
  TGI: > 100 µM
[51]
  TGI: > 100 µM
[52]
  TGI: > 100 µM
[53]
  TGI: > 100 µM
[54]
  TGI: > 100 µM
[55]
  TGI: > 100 µM
[56]
  TGI: > 100 µM
[57]
  TGI: > 100 µM
[58]
  TGI: > 100 µM

## CN(C)Cc1cc(N=Nc2ccccc2Cl)ccc1O
[1]
  TGI: 35.4 µM
[2]
  TGI: 26.1 µM
[3]
  TGI: 25.3 µM
[4]
  TGI: 33.4 µM
[5]
  TGI: 85.4 µM
[6]
  TGI: 56.6 µM
[7]
  TGI: 54.2 µM
[8]
  TGI: 28.6 µM
[9]
  TGI: 71.4 µM
[10]
  TGI: > 100 µM
[11]
  TGI: 26.8 µM
[12]
  TGI: > 100 µM
[13]
  TGI: 75.5 µM
[14]
  TGI: 29.3 µM
[15]
  TGI: 26.2 µM
[16]
  TGI: > 100 µM
[17]
  TGI: 48.4 µM
[18]
  TGI: 33.7 µM
[19]
  TGI: > 100 µM
[20]
  TGI: 38.4 µM
[21]
  TGI: 75.5 µM
[22]
  TGI: 25.3 µM
[23]
  TGI: 44.5 µM
[59]
  TGI: 25.9 µM
[24]
  TGI: 33.5 µM
[25]
  TGI: 86.4 µM
[26]
  TGI: 32.9 µM
[27]
  TGI: 33.4 µM
[28]
  TGI: 28.3 µM
[29]
  TGI: 40 µM
[30]
  TGI: 83.9 µM
[31]
  TGI: 18.2 µM
[32]
  TGI: 23.5 µM
[33]
  TGI: 74.7 µM
[34]
  TGI: 66.9 µM
[35]
  TGI: > 100 µM
[36]
  TGI: 63.2 µM
[37]
  TGI: 25.3 µM
[38]
  TGI: > 100 µM
[39]
  TGI: 81.4 µM
[40]
  TGI: 60.8 µM
[41]
  TGI: > 100 µM
[42]
  TGI: 41.2 µM
[43]
  TGI: 59.5 µM
[45]
  TGI: 32.3 µM
[46]
  TGI: 24.6 µM
[47]
  TGI: > 100 µM
[48]
  TGI: > 100 µM
[49]
  TGI: > 100 µM
[50]
  TGI: 55.8 µM
[51]
  TGI: > 100 µM
[52]
  TGI: 28 µM
[53]
  TGI: 71.5 µM
[54]
  TGI: 65.8 µM
[55]
  TGI: 59.3 µM
[56]
  TGI: 46.3 µM
[57]
  TGI: 40.9 µM
[58]
  TGI: 36.5 µM

## C[N+]1(C)CCOC(O)(c2ccccc2)C1 (centres undefined)
[1]
  TGI: > 100 µM
[2]
  TGI: > 100 µM
[3]
  TGI: > 100 µM
[4]
  TGI: > 100 µM
[5]
  TGI: > 100 µM
[6]
  TGI: > 100 µM
[7]
  TGI: > 100 µM
[8]
  TGI: > 100 µM
[9]
  TGI: > 100 µM
[10]
  TGI: > 100 µM
[12]
  TGI: > 100 µM
[13]
  TGI: > 100 µM
[14]
  TGI: > 100 µM
[15]
  TGI: > 100 µM
[16]
  TGI: > 100 µM
[17]
  TGI: > 100 µM
[18]
  TGI: > 100 µM
[19]
  TGI: > 100 µM
[20]
  TGI: > 100 µM
[21]
  TGI: > 100 µM
[22]
  TGI: > 100 µM
[23]
  TGI: > 100 µM
[59]
  TGI: > 100 µM
[24]
  TGI: > 100 µM
[25]
  TGI: > 100 µM
[26]
  TGI: > 100 µM
[27]
  TGI: > 100 µM
[28]
  TGI: > 100 µM
[29]
  TGI: > 100 µM
[30]
  TGI: > 100 µM
[31]
  TGI: > 100 µM
[32]
  TGI: > 100 µM
[33]
  TGI: > 100 µM
[34]
  TGI: > 100 µM
[35]
  TGI: > 100 µM
[36]
  TGI: > 100 µM
[37]
  TGI: > 100 µM
[38]
  TGI: > 100 µM
[39]
  TGI: > 100 µM
[40]
  TGI: > 100 µM
[41]
  TGI: > 100 µM
[42]
  TGI: > 100 µM
[43]
  TGI: > 100 µM
[44]
  TGI: > 100 µM
[45]
  TGI: > 100 µM
[46]
  TGI: > 100 µM
[47]
  TGI: > 100 µM
[48]
  TGI: > 100 µM
[49]
  TGI: > 100 µM
[50]
  TGI: > 100 µM
[51]
  TGI: > 100 µM
[52]
  TGI: > 100 µM
[53]
  TGI: > 100 µM
[54]
  TGI: > 100 µM
[55]
  TGI: > 100 µM
[56]
  TGI: > 100 µM
[57]
  TGI: > 100 µM
[58]
  TGI: > 100 µM
